{
  "source": "patent US20230133761A1",
  "about": "“INHIBITION OF FKBP1A FOR THE TREATMENT OF TRIPLE-NEGATIVE MAMMARY CARCINOMA” (Heinrich-Heine-Universität Düsseldorf, priority 2020, published 2023)",
  "key": {"[1]": {"test_system": "endothelial and breast cancer cells", "details": "cited from earlier work"}, "[2]": {"test_system": "SFRP2 and VEGF-stimulated in vitro tube formation", "details": "cited from earlier work"}, "[3]": {"test_system": "breast tumor xenograft", "details": "in vivo; cited from earlier work"}, "[4]": {"test_system": "triple-negative mammary carcinoma", "test": "Combined inhibition of FKBP1A and PIN1 in triple-negative mammary carcinoma (tumor stem cell character, apoptosis induction)", "format": "cell-based", "details": "FKBP1A-specific siRNA and co-incubation with ATRA"}, "[5]": {"target": "T1, FKBP1A (Homo sapiens, UniProt P62942)", "T1 construct": "The cells were then washed with PBS, lysed and the expression of FKBP1A was analyzed by western blotting; endogenous in cells; host or cells: MDA-MB-231", "T1 sequence (P62942 whole entry)": "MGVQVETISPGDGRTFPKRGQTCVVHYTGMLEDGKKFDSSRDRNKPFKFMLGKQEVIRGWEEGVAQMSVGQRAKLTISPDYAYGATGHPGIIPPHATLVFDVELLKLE", "test": "Anti-tumor effect on tumor stem cell and EMT markers by PROTAC-mediated FKBP1A expression reduction", "format": "cell-based"}},
  "data": [
    {"compound": "C=CC[C@@H]1/C=C(\\C)C[C@H](C)C[C@H](OC)[C@H]2O[C@@](O)(C(=O)C(=O)N3CCCC[C@H]3C(=O)O[C@H](/C(C)=C/[C@@H]3CC[C@@H](O)[C@H](OC)C3)[C@H](C)[C@@H](O)CC1=O)[C@H](C)C[C@@H]2OC", "note": "[tacrolimus]", "values": [
      {"measurement": "Migration of endothelial and breast cancer cells", "setting": "[1]", "result": "inhibit the migration of endothelial and breast cancer cells"},
      {"measurement": "SFRP2 and VEGF-stimulated in vitro tube formation", "setting": "[2]", "result": "inhibit SFRP2 and VEGF-stimulated in vitro tube formation"},
      {"measurement": "Breast tumor xenograft growth", "setting": "[3]", "result": "attenuates breast tumor xenograft growth in vivo"}
    ]},
    {"compound": "CC1=C(/C=C/C(C)=C/C=C/C(C)=C/C(=O)O)C(C)(C)CCC1", "note": "[ATRA, all-trans retinoic acid]", "values": [
      {"measurement": "Effect on reduction of tumor stem cell character and ability to induce apoptosis", "setting": "[4]", "result": "strong synergistic effect"}
    ]},
    {"compound": "CO[C@H]1C[C@@H]2CC[C@@H](C)[C@@](O)(O2)C(=O)C(=O)N2CCCC[C@H]2C(=O)O[C@H]([C@H](C)C[C@@H]2CC[C@@H](OCCOCc3cn(CCOCCOCCNc4cccc5c4C(=O)N(C4CCC(=O)NC4=O)C5=O)nn3)[C@H](OC)C2)CC(=O)[C@H](C)/C=C(\\C)[C@@H](O)[C@@H](OC)C(=O)[C@H](C)C[C@H](C)/C=C/C=C/C=C/1C", "note": "(some centres unmarked) [FKBP12 PROTAC RC32]", "values": [
      {"measurement": "Anti-tumor effect on tumor stem cell and EMT markers compared to pure inhibition of the enzyme function of FKBP1A", "setting": "[5]", "result": "stronger anti-tumor effect"}
    ]}
  ]
}
